Molecular target: Poly [ADP-ribose] polymerase 1 (Homo sapiens, UniProt P09874)
Assay: Inhibition of human recombinant PARP1 by Trevigen colorimetric assay

Poly [ADP-ribose] polymerase 1, sequence (P09874 whole entry): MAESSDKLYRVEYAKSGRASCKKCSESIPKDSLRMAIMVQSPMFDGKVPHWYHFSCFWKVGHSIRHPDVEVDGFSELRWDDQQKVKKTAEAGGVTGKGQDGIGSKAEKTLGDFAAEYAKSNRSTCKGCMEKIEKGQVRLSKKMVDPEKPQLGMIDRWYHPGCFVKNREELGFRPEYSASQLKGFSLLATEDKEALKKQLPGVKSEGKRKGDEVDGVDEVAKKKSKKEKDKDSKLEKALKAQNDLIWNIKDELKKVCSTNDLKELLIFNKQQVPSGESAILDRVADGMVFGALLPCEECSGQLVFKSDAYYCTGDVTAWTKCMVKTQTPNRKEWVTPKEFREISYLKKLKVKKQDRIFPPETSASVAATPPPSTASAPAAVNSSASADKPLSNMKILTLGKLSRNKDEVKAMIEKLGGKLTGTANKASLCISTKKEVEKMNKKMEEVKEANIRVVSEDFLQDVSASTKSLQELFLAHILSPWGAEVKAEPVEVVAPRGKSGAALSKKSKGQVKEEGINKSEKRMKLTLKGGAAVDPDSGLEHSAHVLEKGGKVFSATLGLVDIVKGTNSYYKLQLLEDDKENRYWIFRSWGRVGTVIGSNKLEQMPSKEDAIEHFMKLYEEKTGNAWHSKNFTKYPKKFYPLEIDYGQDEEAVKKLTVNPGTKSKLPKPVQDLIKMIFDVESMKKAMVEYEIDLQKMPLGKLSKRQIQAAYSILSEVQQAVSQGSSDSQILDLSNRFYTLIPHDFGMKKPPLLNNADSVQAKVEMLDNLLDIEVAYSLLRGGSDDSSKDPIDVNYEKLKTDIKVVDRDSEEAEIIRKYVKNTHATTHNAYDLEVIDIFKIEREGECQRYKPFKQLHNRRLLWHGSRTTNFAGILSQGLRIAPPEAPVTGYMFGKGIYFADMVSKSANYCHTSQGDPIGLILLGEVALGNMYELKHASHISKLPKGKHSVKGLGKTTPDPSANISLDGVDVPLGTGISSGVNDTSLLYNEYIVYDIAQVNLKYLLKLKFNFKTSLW

Question: How did the IC50 turn out when `Nc1cccc2c(=O)[nH]ccc12` was run?
Answer: The IC50 was 1.8 µM.

Reference: ChEMBL document CHEMBL1143312, “Design, synthesis, and evaluation in vitro of quinoline-8-carboxamides, a new class of poly(adenosine-diphosphate-ribose)polymerase-1 (PARP-1) inhibitor” (J Med Chem, 2009)
